Experimental data taken from US20230104936A1, “TRPML MODULATORS” (Casma Therapeutics, Inc., priority 2019, published 2023).

Tested on: TFEB
Assay: TFEB nuclear translocation assay, HeLa wt cells
Type: cell-based
Conditions: 2 hrs compound treatment, Table 1 does not say HeLa wt or TRPML1 KO
Method in brief: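 HeLa wt cells were treated with compound for 2 hrs at 37° C, then fixed in 4% PFA and immunostained for TFEB with an Alexa 488 secondary and Hoechst nuclear counterstain. Automated epifluorescence imaging at ×20 gave the ratio of nuclear TFEB intensity to a perinuclear ring region, from which AC50 was derived.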

Structure (SMILES)	AC50
CN(C)S(=O)(=O)c1ccc(S(=O)(=O)Nc2ccccc2N2C3CC2CN(c2ccc(Cl)cc2F)C3)cc1 [Compound A-28, N4-{2-[3-(4-chloro-2-fluorophenyl)-3,6-diazabicyclo[3.1.1]heptan-6-yl]phenyl}-N1,N1-dimethylbenzene-1,4-disulfonamide]	≤ 2000 nM

Same assay, conditions: Homo sapiens, HeLa, 2 h, 2 hrs compound treatment, Table 1 does not say HeLa wt or TRPML1 KO

Structure (SMILES)	AC50
CN(C)S(=O)(=O)c1ccc(S(=O)(=O)Nc2ccccc2C2CCN(c3ccc(Cl)cc3F)CC2)cc1 [Compound A-22, N1-(2-(1-(4-chloro-2-fluorophenyl)piperidin-4-yl)phenyl)-N4,N4-dimethylbenzene-1,4-disulfonamide]	2010 to 8000 nM
CN(C)S(=O)(=O)c1ccc(S(=O)(=O)Nc2ccccc2N2CCC(c3ccc(Cl)cc3F)CC2)cc1 [Compound A-23, N4-{2-[4-(4-chloro-2-fluorophenyl)piperidin-1-yl]phenyl}-N1,N1-dimethylbenzene-1,4-disulfonamide]	≤ 2000 nM
CN(C)S(=O)(=O)c1ccc(S(=O)(=O)Nc2ccccc2N2[C@@H]3CC[C@H]2CN(c2ccc(Cl)cc2F)C3)cc1 [Compound A-25, N4-{2-[(1R,5S)-3-(4-chloro-2-fluorophenyl)-3,8-diazabicyclo[3.2.1]octan-8-yl]phenyl}-N1,N1-dimethylbenzene-1,4-disulfonamide]	≤ 2000 nM
CN(C)S(=O)(=O)c1ccc(S(=O)(=O)Nc2ccccc2N2CC3CCC2CN3c2ccc(Cl)cc2F)cc1 (stereo not drawn) [Compound A-26, N4-{2-[5-(4-chloro-2-fluorophenyl)-2,5-diazabicyclo[2.2.2]octan-2-yl]phenyl}-N1,N1-dimethylbenzene-1,4-disulfonamide]	≤ 2000 nM
CN(C)S(=O)(=O)c1ccc(S(=O)(=O)Nc2ccccc2N2C3CC2CN(c2ccc(Cl)cc2F)C3)cc1 [Compound A-27, N4-{2-[3-(4-chloro-2-fluorophenyl)-3,6-diazabicyclo[3.1.1]heptan-6-yl]phenyl}-N1,N1-dimethylbenzene-1,4-disulfonamide]	2010 to 8000 nM
Cc1nn(C)c(C2=CCN(c3ccc(Cl)cc3F)CC2)c1NS(=O)(=O)c1ccc(S(=O)(=O)N(C)C)cc1 [Compound A-29, N1-(5-(1-(4-chloro-2-fluorophenyl)-1,2,3,6-tetrahydropyridin-4-yl)-1,3-dimethyl-1H-pyrazol-4-yl)-N4,N4-dimethylbenzene-1,4-disulfonamide]	≥ 10000 nM
CN(C)S(=O)(=O)c1ccc(S(=O)(=O)Nc2ccccc2N2CC3CC(C2)N3c2ccc(Cl)cc2F)cc1 [Compound A-30, N4-{2-[6-(4-chloro-2-fluorophenyl)-3,6-diazabicyclo[3.1.1]heptan-3-yl]phenyl}-N1,N1-dimethylbenzene-1,4-disulfonamide]	≤ 2000 nM
CN(C)S(=O)(=O)c1ccc(S(=O)(=O)Nc2ccccc2N2CC3CC2CN3c2ccc(Cl)cc2F)cc1 (stereo not drawn) [Compound A-31, N4-{2-[5-(4-chloro-2-fluorophenyl)-2,5-diazabicyclo[2.2.1]heptan-2-yl]phenyl}-N1,N1-dimethylbenzene-1,4-disulfonamide]	≤ 2000 nM
CN(C)S(=O)(=O)c1ccc(S(=O)(=O)Nc2ccccc2N2CC=C(c3ccc(Cl)cc3F)CC2)cc1 [Compound A-32, N4-{2-[4-(4-chloro-2-fluorophenyl)-1,2,3,6-tetrahydropyridin-1-yl]phenyl}-N1,N1-dimethylbenzene-1,4-disulfonamide]	≤ 2000 nM
Cc1nn(C)c(C2CCN(c3ccc(Cl)cc3F)CC2)c1NS(=O)(=O)c1ccc(S(=O)(=O)N(C)C)cc1 [Compound A-33, N1-(5-(1-(4-chloro-2-fluorophenyl)piperidin-4-yl)-1,3-dimethyl-1H-pyrazol-4-yl)-N4,N4-dimethylbenzene-1,4-disulfonamide]	≥ 10000 nM
COc1cc(S(=O)(=O)Nc2ccccc2N2CCN(c3ccc(Cl)cc3F)CC2)ccn1 [Compound A-34, N-{2-[4-(4-chloro-2-fluorophenyl)piperazin-1-yl]phenyl}-2-methoxypyridine-4-sulfonamide]	≤ 2000 nM
Cc1nocc1S(=O)(=O)Nc1ccccc1N1CCN(c2ccc(Cl)cc2F)CC1 [Compound A-35, N-{2-[4-(4-chloro-2-fluorophenyl)piperazin-1-yl]phenyl}-3-methyl-1,2-oxazole-4-sulfonamide]	≥ 10000 nM
CN(C)S(=O)(=O)c1ccc(S(=O)(=O)Nc2nnc(N3CCN(c4ccc(Cl)cc4F)CC3)s2)cc1 [Compound A-36, N4-{5-[4-(4-chloro-2-fluorophenyl)piperazin-1-yl]-1,3,4-thiadiazol-2-yl}-N1,N1-dimethylbenzene-1,4-disulfonamide]	≤ 2000 nM
Cc1nn(S(=O)(=O)c2ccc(S(=O)(=O)N(C)C)cc2)cc1C1=CCN(c2ccc(Cl)cc2F)CC1 [Compound A-37, 4-({4-[1-(4-chloro-2-fluorophenyl)-1,2,3,6-tetrahydropyridin-4-yl]-3-methyl-1H-pyrazol-1-yl}sulfonyl)-N,N-dimethylbenzene-1-sulfonamide]	2010 to 8000 nM
Cc1nn(S(=O)(=O)c2ccc(S(=O)(=O)N(C)C)cc2)cc1C1CCN(c2ccc(Cl)cc2F)CC1 [Compound A-38, 4-({4-[1-(4-chloro-2-fluorophenyl)piperidin-4-yl]-3-methyl-1H-pyrazol-1-yl}sulfonyl)-N,N-dimethylbenzene-1-sulfonamide]	≤ 2000 nM
Cc1nc(C2CCN(c3ccc(Cl)cc3F)CC2)cn1S(=O)(=O)c1ccc(S(=O)(=O)N(C)C)cc1 [Compound A-39, 4-((4-(1-(4-chloro-2-fluorophenyl)piperidin-4-yl)-2-methyl-1H-imidazol-1-yl)sulfonyl)-N,N-dimethylbenzenesulfonamide]	2010 to 8000 nM

Structure (SMILES)	AC50
CN(C)S(=O)(=O)c1ccc(S(=O)(=O)Nc2nn(C)cc2C2CCN(c3ccccc3F)CC2)cc1 [Compound A-40, N1-(4-(1-(2-fluorophenyl)piperidin-4-yl)-1-methyl-1H-pyrazol-3-yl)-N4,N4-dimethylbenzene-1,4-disulfonamide]	2010 to 8000 nM
CCOC(=O)c1ccc(S(=O)(=O)Nc2ccccc2N2CCC(c3ccc(Cl)cc3F)CC2)cc1 [Compound A-41, ethyl 4-({2-[4-(4-chloro-2-fluorophenyl)piperidin-1-yl]phenyl}sulfamoyl)benzoate]	≥ 10000 nM
O=S(=O)(Nc1ccccc1N1CCC(c2ccc(Cl)cc2F)CC1)c1ccccc1 [Compound A-42, N-{2-[4-(4-chloro-2-fluorophenyl)piperidin-1-yl]phenyl}benzenesulfonamide]	≥ 10000 nM
O=S(=O)(Nc1ccccc1N1CCN(c2ccc(Cl)cc2F)CC1)N1CCOCC1 [Compound A-43, N-{2-[4-(4-chloro-2-fluorophenyl)piperazin-1-yl]phenyl}morpholine-4-sulfonamide]	≤ 2000 nM
CN(C)C(=O)c1ccc(S(=O)(=O)Nc2ccccc2N2CCC(c3ccc(Cl)cc3F)CC2)cc1 [Compound A-44, 4-({2-[4-(4-chloro-2-fluorophenyl)piperidin-1-yl]phenyl}sulfamoyl)-N,N-dimethylbenzamide]	≤ 2000 nM
O=C(NC1CC1)c1ccc(S(=O)(=O)Nc2ccccc2N2CCC(c3ccc(Cl)cc3F)CC2)cc1 [Compound A-45, 4-({2-[4-(4-chloro-2-fluorophenyl)piperidin-1-yl]phenyl}sulfamoyl)-N-cyclopropylbenzamide]	2010 to 8000 nM
CN(C)S(=O)(=O)c1ccc(S(=O)(=O)Nc2cccc(N3CCC(c4ccc(Cl)cc4F)CC3)c2)cc1 [Compound A-46, N4-{3-[4-(4-chloro-2-fluorophenyl)piperidin-1-yl]phenyl}-N1,N1-dimethylbenzene-1,4-disulfonamide]	≥ 10000 nM
CN(C)S(=O)(=O)c1ccc(S(=O)(=O)Nc2ccccc2N2CCC(c3ccc(Cl)cc3)CC2)cc1 [Compound A-47, N4-{2-[4-(4-chlorophenyl)piperidin-1-yl]phenyl}-N1,N1-dimethylbenzene-1,4-disulfonamide]	≤ 2000 nM
CNC(=O)c1ccc(S(=O)(=O)Nc2ccccc2N2CCC(c3ccc(Cl)cc3F)CC2)cc1 [Compound A-48, 4-({2-[4-(4-chloro-2-fluorophenyl)piperidin-1-yl]phenyl}sulfamoyl)-N-methylbenzamide]	≥ 10000 nM
O=C(c1ccc(S(=O)(=O)Nc2ccccc2N2CCC(c3ccc(Cl)cc3F)CC2)cc1)N1CCCC1 [Compound A-49, N-{2-[4-(4-chloro-2-fluorophenyl)piperidin-1-yl]phenyl}-4-(pyrrolidine-1-carbonyl)benzene-1-sulfonamide]	≥ 10000 nM
Cc1nn(S(=O)(=O)c2ccc(S(=O)(=O)N(C)C)cc2)cc1N1CCC(c2ccc(Cl)cc2F)CC1 [Compound A-50, 4-((4-(4-(4-chloro-2-fluorophenyl)piperidin-1-yl)-3-methyl-1H-pyrazol-1-yl)sulfonyl)-N,N-dimethylbenzenesulfonamide]	2010 to 8000 nM
CN(C)S(=O)(=O)c1ccc(S(=O)(=O)Nc2ccccc2N2CCN(c3ncccc3F)CC2)cc1 [Compound A-51, N4-{2-[4-(3-fluoropyridin-2-yl)piperazin-1-yl]phenyl}-N1,N1-dimethylbenzene-1,4-disulfonamide]	2010 to 8000 nM
CN(C)S(=O)(=O)c1ccc(S(=O)(=O)Nc2ccccc2N2CCN(C3CC3)CC2)cc1 [Compound A-52, N4-[2-(4-cyclopropylpiperazin-1-yl)phenyl]-N1,N1-dimethylbenzene-1,4-disulfonamide]	≤ 2000 nM
CN(C)S(=O)(=O)c1ccc(S(=O)(=O)Nc2ccccc2N2CCN(C3CCCCC3)CC2)cc1 [Compound A-53, N4-[2-(4-cyclohexylpiperazin-1-yl)phenyl]-N1,N1-dimethylbenzene-1,4-disulfonamide]	2010 to 8000 nM
CN1CCN(c2ccccc2NS(=O)(=O)c2ccc(S(=O)(=O)N(C)C)cc2)CC1 [Compound A-54, N1,N1-dimethyl-N4-[2-(4-methylpiperazin-1-yl)phenyl]benzene-1,4-disulfonamide]	≥ 10000 nM
CN(C)S(=O)(=O)c1ccc(S(=O)(=O)Nc2nn(C)cc2C2CCN(c3ccc(Cl)cc3F)CC2)cc1 [Compound A-55, N1-(4-(1-(4-chloro-2-fluorophenyl)piperidin-4-yl)-1-methyl-1H-pyrazol-3-yl)-N4,N4-dimethylbenzene-1,4-disulfonamide]	≤ 2000 nM
